Entries after “also recorded” stand apart in the source; their conditions may differ.
Tests used:
[1] = molecular target: T1, catalytic domain of human PARP14 (residues 1611 to 1801) with NanoLuc tag (Homo sapiens, UniProt Q460N5); assay: NanoLuc assay for the degradation of PARP14 (NanoLuc-tagged PARP14 overexpressed in HEK-293T cells, 2 hours); type: cell-based; conditions: Assay A (Example A): NanoLuc-tagged PARP14 degradation in HEK-293T cells, read-out: DC50
T1 construct: expressed in transfected cells; host or cells: HEK-293T cells (ATCC), pcDNA3.1(-) vector
T1 sequence (Q460N5 1611-1801): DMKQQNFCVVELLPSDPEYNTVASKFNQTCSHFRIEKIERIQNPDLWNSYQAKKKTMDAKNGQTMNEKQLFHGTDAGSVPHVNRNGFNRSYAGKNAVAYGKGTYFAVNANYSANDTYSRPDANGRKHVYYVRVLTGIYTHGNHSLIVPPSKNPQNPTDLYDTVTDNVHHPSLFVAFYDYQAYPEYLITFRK

[2] = tested on: Alternaria asthma mouse model; assay: Alternaria asthma mouse model: cell counts and cytokines in BALF; type: in vivo; conditions: Alternaria-challenged male Balb/c mice, 30, 100, 300, 1000 mg/kg once daily for 7 days by oral gavage, vs vehicle control (P<0.05), dose-dependent starting from 100 mg/kg
Protocol: The effect of Compound 64 was studied in an Alternaria asthma mouse model. On days 1-5, male Balb/c mice under isoflurane anesthesia were challenged by instilling a solution of 5 μg (protein weight) Alternaria in 40 μL of PBS into each nostril. Sham-treated mice were administered 40 μL of PBS into each nostril. Compound 64 was administered two days prior to Alternaria challenge (defined day as day −1) and animals were treated with vehicle (0.5% methylcellulose+0.2% Tween 20) or Compound Y (30, 100, 300, 1000 mg/kg) once daily for 7 days (defined as day −1 to day 5) by oral gavage. Total and differential cell counts of the BALF fluid samples were measured using a XT-2000iV analyzer (Sysmex). Cytokine concentrations of BALF supernatant were measured in samples from all groups using ELISA kit (Biotechne, UK).
Statistical significance is calculated using one-way ANOVA followed by Dunnett's post-tests in which the treatment groups were compared to vehicle control (P<0.05).

SMILES | DC50 [1] [nM] | other results
O=C1CCC(Nc2ccc(N3C4CCC3CN(CCN3CCC(COc5cc(F)c6c(=O)[nH]c(CSC7CCOCC7)nc6c5)CC3)C4)cc2)C(=O)N1 (stereo not shown) [Example 121] | < 100 | 
O=C1CCC(Nc2ccc(N3CCN(CCN4CCC(COc5cc(F)c6c(=O)[nH]c(CSC7CCOCC7)nc6c5)CC4)CC3C(F)(F)F)cc2)C(=O)N1 (stereo not shown) [Example 122] | < 100 | 

More lines, main results first:

DC50 [1] [nM] | SMILES | other results
< 100 | O=C1CCC(Nc2ccc(N3CCN(CCN4CCC(COc5cc(F)c6c(=O)[nH]c(CSC7CCOCC7)nc6c5)CC4)CC3)c(F)c2)C(=O)N1 (racemic) [Example 64, 3-((3-fluoro-4-(4-(2-(4-(((5-fluoro-4-oxo-2-(((tetrahydro-2H-pyran-4-yl)thio)methyl)-3,4-dihydroquinazolin-7-yl)oxy)methyl)piperidin-1-yl)ethyl)piperazin-1-yl)phenyl)amino)piperidine-2,6-dione] | cytokine IL-4 in BALF ([2]; ELISA of BALF supernatant): significantly reduces; cytokine IL-5 in BALF ([2]; ELISA of BALF supernatant): significantly reduces; cytokine IL-33 in BALF ([2]; ELISA of BALF supernatant): significantly reduces; eosinophils in BALF [2]: significantly reduces; total cell counts in BALF (Alternaria-induced cell infiltration) [2]: significantly reduces; also recorded: dose-dependent reduction
< 100 | CN(c1ccc(NC2CCC(=O)NC2=O)cc1)C1CCN(CCN2CCC(COc3cc(F)c4c(=O)[nH]c(CSC5CCOCC5)nc4c3)CC2)CC1 (stereo not shown) [Example 123] | 
< 100 | O=C1CCC(Nc2ccc(N3CCN(C4CCC(COc5cc(F)c6c(=O)[nH]c(CSC7CCOCC7)nc6c5)CC4)CC3)cc2)C(=O)N1 (stereo not shown) [Example 124] | 

Reference: US20240101540A1, “TARGETED PROTEIN DEGRADATION OF PARP14 FOR USE IN THERAPY” (Ribon Therapeutics, Inc., priority 2022, published 2024)
